Experiment: refractive index (Na D-line) (dimensionless); xn = mol fraction of the nth substance listed
Settings: 101 kPa, Liquid, Standard Abbe refractometry

CC(O)CO (stereo not given) [1,2-propanediol] + c1ccncc1
refractive index
Settings	x2 = 0	x2 = 0.1	x2 = 0.2	x2 = 0.2999	x2 = 0.4	x2 = 0.4999	x2 = 0.6	x2 = 0.7001	x2 = 0.8	x2 = 0.9
288.15 K	1.43411	1.44356	1.4522	1.46041	1.46838	1.47609	1.48375	1.49129	1.49866	1.50554
293.15 K	1.43247	1.4418	1.4503	1.4584	1.46629	1.47383	1.4814	1.48884	1.49609	1.50288
298.15 K	1.43081	1.43993	1.44839	1.4564	1.46417	1.47163	1.47909	1.4864	1.49345	1.49993
303.15 K	1.42915	1.43816	1.4465	1.45438	1.46204	1.4694	1.47676	1.48397	1.49093	1.49727
308.15 K	1.42751	1.43643	1.44465	1.45244	1.46	1.46728	1.47448	1.48152	1.48841	1.49461
313.15 K	1.42581	1.43463	1.44276	1.45051	1.45802	1.46517	1.47224	1.4791	1.48589	1.49195
318.15 K	1.42407	1.43286	1.44082	1.44855	1.45597	1.46296	1.46991	1.47665	1.48321	1.4894
323.15 K	1.4223	1.43109	1.439	1.44676	1.45397	1.46088	1.46777	1.47441	1.48086	1.4869

OCCCO [propan-1,3-diol] + c1ccncc1
refractive index
Settings	x2 = 0	x2 = 0.0999	x2 = 0.2	x2 = 0.3	x2 = 0.4001	x2 = 0.5	x2 = 0.5999	x2 = 0.7	x2 = 0.7998	x2 = 0.8998
288.15 K	1.44089	1.44922	1.45763	1.46592	1.47372	1.4809	1.48773	1.49409	1.49986	1.50582
293.15 K	1.43947	1.44774	1.45599	1.46414	1.47185	1.47889	1.48556	1.4918	1.49743	1.50319
298.15 K	1.43805	1.44619	1.45436	1.46235	1.46995	1.47685	1.4834	1.4895	1.495	1.50057
303.15 K	1.43665	1.44473	1.45279	1.46061	1.46805	1.47482	1.48124	1.4872	1.49257	1.49795
308.15 K	1.43526	1.44328	1.45118	1.45892	1.46621	1.4728	1.47907	1.48491	1.49016	1.49536
313.15 K	1.43387	1.44171	1.44953	1.45718	1.46432	1.47092	1.47707	1.48267	1.48778	1.49276
318.15 K	1.43244	1.4402	1.44788	1.45542	1.4624	1.4689	1.47491	1.48045	1.4855	1.49023
323.15 K	1.43099	1.43869	1.44628	1.45378	1.46051	1.467	1.47312	1.47837	1.4833	1.48788

c1ccncc1 [pyridine] + CCCO
refractive index
Settings	x1 = 0.1001	x1 = 0.1998	x1 = 0.2999	x1 = 0.3998	x1 = 0.5	x1 = 0.5999	x1 = 0.7	x1 = 0.8	x1 = 0.8998	x1 = 1
288.15 K	1.40196	1.41533	1.42836	1.44094	1.45341	1.46554	1.47748	1.48907	1.50064	1.51184
293.15 K	1.39979	1.41307	1.42603	1.43854	1.45095	1.46301	1.47487	1.4864	1.49788	1.509
298.15 K	1.39757	1.41079	1.42367	1.43616	1.44848	1.46047	1.47228	1.48375	1.49514	1.50616
303.15 K	1.39535	1.40849	1.42136	1.43375	1.44601	1.45795	1.46968	1.48107	1.49238	1.50331
308.15 K	1.3931	1.40618	1.41898	1.43132	1.44353	1.45541	1.46708	1.47839	1.48965	1.50048
313.15 K	1.39068	1.40381	1.41659	1.42891	1.44102	1.45287	1.46445	1.47573	1.48683	1.49769
318.15 K	1.3884	1.40151	1.41425	1.42648	1.43857	1.45038	1.46187	1.47309	1.48411	1.49493
323.15 K	1.38622	1.39909	1.41179	1.42409	1.43616	1.44788	1.45942	1.47055	1.48155	1.49219

c1ccncc1 [pyridine] + OCC(O)CO
refractive index
Settings	x1 = 0.1	x1 = 0.2001	x1 = 0.3001	x1 = 0.4	x1 = 0.4998	x1 = 0.6001	x1 = 0.6999	x1 = 0.8001	x1 = 0.8999	x1 = 1
288.15 K	1.48103	1.48616	1.49108	1.49581	1.49973	1.50321	1.50634	1.50874	1.51057	1.51184
293.15 K	1.47967	1.48469	1.48946	1.49406	1.49786	1.50115	1.50412	1.50638	1.50796	1.509
298.15 K	1.47829	1.48318	1.48784	1.49227	1.49597	1.49954	1.50189	1.504	1.50535	1.50616
303.15 K	1.4769	1.48167	1.48619	1.49055	1.49411	1.49711	1.49967	1.50162	1.50275	1.50331
308.15 K	1.47553	1.48015	1.48454	1.48882	1.49222	1.49515	1.49743	1.49927	1.50017	1.50048
313.15 K	1.47412	1.47863	1.48286	1.48703	1.49024	1.49307	1.49542	1.49699	1.49777	1.49769
318.15 K	1.47272	1.47699	1.4812	1.48522	1.48844	1.49119	1.49319	1.4947	1.49512	1.49493
323.15 K	1.47138	1.47548	1.47953	1.48348	1.48658	1.48919	1.49101	1.4924	1.4926	1.49219
